Among the data in patent US20250368666A1, “INDAZOLE COMPOUNDS” (TYRA BIOSCIENCES, INC., priority 2022, published 2025) are Kd and IC50 values, retold here.

The target in assay [1] is T1, FGFR1 (Homo sapiens, UniProt P11362).
T1 construct: made in house; host or cells: E. coli (BL21-derived), T7 phage
The assay can be described thus: Kinase binding assay (kinase-tagged T7 phage, affinity beads, qPCR), Kd. To be noted: read-out: FGFR1 (Kd nM). In a few lines: (§1)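 Readout was qPCR of kinase eluted from ligand-coated affinity beads after competition with test compound. Kinases were expressed as T7 phage fusions in E. coli. Binding constants were derived by non-linear least-squares Hill fitting, Hill slope −1.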

Assay [2] concerns the target T2, FGFR2 (Homo sapiens, UniProt P21802).
T2 construct: made in house; host or cells: E. coli (BL21-derived), T7 phage
The description is as above. The settings on record: read-out: FGFR2 (Kd nM). An outline of the steps: as §1

Assay [3] addresses T3, FGFR3 (Homo sapiens, UniProt P22607).
T3 construct: made in house; host or cells: E. coli (BL21-derived), T7 phage
Described as above. To be noted: read-out: FGFR3 (Kd nM). In a few lines:
as §1

For assay [4], the target named is T4, FGFR3 (V555M) (Homo sapiens, UniProt P22607, V555M).
T4 construct: made in house; host or cells: E. coli (BL21-derived), T7 phage
The assay is described as above. To be noted: V555M mutant; read-out: FGFR3 (V555M) (Kd nM). An outline of the steps:
as §1

The target in assay [5] is T5, FGFR4 (Homo sapiens, UniProt P22455).
T5 construct: made in house; host or cells: E. coli (BL21-derived), T7 phage
The description is as above. The settings on record: read-out: FGFR4 (Kd nM). An outline of the steps:
as §1

The subject of assay [6] is KATO-III cell line (FGFR2 amplification). The assay is described as follows: Cancer cell line cell viability assay (Cell Titer-Glo), 72 hr. Format: cell-based. To be noted: Homo sapiens, KATO III. An outline of the steps: (§2)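 Intracellular ATP was measured by Cell Titer-Glo 2.0 luminescence after cells were incubated with compound dilutions (top 3 μM, 4-fold, 9 doses). Values were expressed relative to DMSO-treated cells and IC50 was calculated from a variable-slope dose-response curve.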

In assay [7] the test system is KG-1 cell line (FGFR 1-fusion). Described as above. Format: cell-based. To be noted: Homo sapiens, KG-1, KG-1 cell line (FGFR1-fusion). In a few lines: as §2
Assay [8] concerns RT112/84 cell line (FGFR3-fusion). The assay is described as above. Format: cell-based. The settings on record: Homo sapiens, RT112/84, RT112/84 cell line (FGFR3-fusion). In a few lines:
as §2

Assay [9] concerns HuH7 cell line (FGF19 amplification). The assay can be described thus: Cancer cell line cell viability assay (Cell Titer-Glo), 120 hr. Format: cell-based. To be noted: Homo sapiens, Huh-7. In a few lines: as §2
Assay [10] relates to MDA-MB-453 cell line (FGFR4-Y367C). Described as above. Format: cell-based. To be noted: Homo sapiens. An outline of the steps:
as §2

T2 sequence (P21802 22-821): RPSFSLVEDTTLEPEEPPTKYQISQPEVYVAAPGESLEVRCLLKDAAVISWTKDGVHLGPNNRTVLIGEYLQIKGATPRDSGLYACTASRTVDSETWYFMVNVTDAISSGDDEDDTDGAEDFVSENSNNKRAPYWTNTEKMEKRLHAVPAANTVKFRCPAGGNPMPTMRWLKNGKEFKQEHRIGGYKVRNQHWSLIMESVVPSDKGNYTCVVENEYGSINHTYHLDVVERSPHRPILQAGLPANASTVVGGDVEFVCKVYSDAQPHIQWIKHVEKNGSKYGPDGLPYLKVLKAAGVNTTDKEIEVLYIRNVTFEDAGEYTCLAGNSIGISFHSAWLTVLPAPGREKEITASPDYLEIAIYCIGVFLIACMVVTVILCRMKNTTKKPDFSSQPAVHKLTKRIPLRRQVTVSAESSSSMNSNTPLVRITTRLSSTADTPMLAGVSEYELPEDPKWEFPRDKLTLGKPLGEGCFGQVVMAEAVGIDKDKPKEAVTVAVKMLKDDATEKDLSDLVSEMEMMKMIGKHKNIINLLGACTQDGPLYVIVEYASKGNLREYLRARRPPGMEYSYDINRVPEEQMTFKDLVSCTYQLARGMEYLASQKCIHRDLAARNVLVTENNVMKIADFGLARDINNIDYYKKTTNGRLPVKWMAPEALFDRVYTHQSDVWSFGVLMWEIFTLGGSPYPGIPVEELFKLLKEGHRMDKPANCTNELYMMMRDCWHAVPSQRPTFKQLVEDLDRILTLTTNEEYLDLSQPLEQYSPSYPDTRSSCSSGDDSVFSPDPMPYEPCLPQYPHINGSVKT
T4 sequence (P22607 23-806 V555M): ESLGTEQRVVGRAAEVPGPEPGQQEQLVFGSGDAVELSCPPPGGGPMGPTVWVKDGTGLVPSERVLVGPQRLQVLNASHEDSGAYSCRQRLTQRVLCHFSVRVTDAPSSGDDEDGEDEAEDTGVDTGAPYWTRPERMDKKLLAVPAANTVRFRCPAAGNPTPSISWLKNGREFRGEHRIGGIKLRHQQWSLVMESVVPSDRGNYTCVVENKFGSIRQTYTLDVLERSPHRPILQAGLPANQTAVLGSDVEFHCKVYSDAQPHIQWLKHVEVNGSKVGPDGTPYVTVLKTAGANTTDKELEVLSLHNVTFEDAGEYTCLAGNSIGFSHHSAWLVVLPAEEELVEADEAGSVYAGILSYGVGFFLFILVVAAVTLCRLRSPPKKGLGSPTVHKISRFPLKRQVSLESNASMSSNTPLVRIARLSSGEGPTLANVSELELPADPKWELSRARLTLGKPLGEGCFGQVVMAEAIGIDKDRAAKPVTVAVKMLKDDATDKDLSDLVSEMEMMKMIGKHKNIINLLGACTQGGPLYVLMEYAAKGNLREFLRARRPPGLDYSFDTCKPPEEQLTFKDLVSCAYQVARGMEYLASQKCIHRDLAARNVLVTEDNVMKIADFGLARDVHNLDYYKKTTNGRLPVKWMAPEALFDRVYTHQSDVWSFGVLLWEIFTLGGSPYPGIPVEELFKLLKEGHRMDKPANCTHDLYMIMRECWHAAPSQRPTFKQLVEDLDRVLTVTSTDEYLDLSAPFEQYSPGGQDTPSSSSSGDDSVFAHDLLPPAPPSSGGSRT
T5 sequence (P22455 22-802): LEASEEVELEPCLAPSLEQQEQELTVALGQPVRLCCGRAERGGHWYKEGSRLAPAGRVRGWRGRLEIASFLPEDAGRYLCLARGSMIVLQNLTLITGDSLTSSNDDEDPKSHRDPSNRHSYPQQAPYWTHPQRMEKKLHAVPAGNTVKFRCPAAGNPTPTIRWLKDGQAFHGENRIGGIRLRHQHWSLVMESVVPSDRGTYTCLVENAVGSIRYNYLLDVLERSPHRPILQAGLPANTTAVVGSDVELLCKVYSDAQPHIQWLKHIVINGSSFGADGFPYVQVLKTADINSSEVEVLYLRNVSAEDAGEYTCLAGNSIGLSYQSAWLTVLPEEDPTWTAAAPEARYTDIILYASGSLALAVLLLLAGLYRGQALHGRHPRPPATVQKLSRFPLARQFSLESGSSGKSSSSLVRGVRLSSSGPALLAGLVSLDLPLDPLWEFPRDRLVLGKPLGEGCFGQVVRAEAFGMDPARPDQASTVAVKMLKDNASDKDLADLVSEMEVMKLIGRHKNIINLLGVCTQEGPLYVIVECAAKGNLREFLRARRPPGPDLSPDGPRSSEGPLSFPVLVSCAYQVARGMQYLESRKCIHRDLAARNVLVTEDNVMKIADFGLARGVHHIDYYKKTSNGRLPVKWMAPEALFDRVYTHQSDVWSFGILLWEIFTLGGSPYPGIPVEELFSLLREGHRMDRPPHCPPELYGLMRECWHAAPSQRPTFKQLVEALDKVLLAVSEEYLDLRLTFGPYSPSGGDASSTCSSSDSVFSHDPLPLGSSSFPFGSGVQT
T1 sequence (P11362 22-822): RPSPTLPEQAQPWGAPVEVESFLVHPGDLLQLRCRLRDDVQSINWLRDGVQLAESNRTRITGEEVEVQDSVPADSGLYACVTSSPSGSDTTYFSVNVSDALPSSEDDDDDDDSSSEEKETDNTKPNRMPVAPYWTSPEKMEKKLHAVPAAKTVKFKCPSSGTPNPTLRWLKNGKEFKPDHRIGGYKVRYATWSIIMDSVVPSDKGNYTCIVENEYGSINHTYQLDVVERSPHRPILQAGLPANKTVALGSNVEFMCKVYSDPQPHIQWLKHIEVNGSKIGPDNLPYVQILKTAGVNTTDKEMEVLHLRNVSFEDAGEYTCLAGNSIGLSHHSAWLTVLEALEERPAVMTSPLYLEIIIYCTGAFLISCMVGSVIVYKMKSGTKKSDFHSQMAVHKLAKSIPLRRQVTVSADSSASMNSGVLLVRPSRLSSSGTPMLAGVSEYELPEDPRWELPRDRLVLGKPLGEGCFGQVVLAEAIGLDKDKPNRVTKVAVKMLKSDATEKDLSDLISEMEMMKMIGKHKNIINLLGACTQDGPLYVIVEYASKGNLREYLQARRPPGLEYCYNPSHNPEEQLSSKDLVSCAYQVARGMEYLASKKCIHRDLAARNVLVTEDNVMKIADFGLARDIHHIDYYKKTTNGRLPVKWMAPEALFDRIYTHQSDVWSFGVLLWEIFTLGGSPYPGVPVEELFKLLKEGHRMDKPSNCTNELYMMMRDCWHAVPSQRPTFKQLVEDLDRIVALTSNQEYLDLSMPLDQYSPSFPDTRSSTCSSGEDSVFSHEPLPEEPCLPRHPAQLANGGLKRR
T3 sequence (P22607 23-806): as the sequence (P22607 23-806 V555M) above, with M533V counted along it

Take `COc1cc2[nH]nc(-c3cnc(N4CC(C)(NCC(C)(C)O)C4)c(C#N)c3)c2cc1O[C@H](C)c1c(Cl)cncc1Cl` [Example 55, (R)-5-(5-(1-(3,5-dichloropyridin-4-yl)ethoxy)-6-methoxy-1H-indazol-3-yl)-2-(3-((2-hydroxy-2-methylpropyl)amino)-3-methylazetidin-1-yl)nicotinonitrile]: the Kd in [1], in assay [2], in assay [3], in assay [4] and in assay [5] was 1 to 50 nM throughout. The IC50 in assay [6] fell in the range of 50 to 200 nM; in assay [7] it was 50 to 200 nM; in assay [8] it was 0.1 to 50 nM; in assay [9], 0.1 to 50 nM; in [10] it was 0.1 to 50 nM.

As to `C[C@@H](Oc1ccc2[nH]nc(-c3cnc(N4CC(C)(N(C)C)C4)c(F)c3)c2c1)c1c(Cl)cncc1Cl` [Example 81, (R)-1-(5-(5-(1-(3,5-dichloropyridin-4-yl)ethoxy)-1H-indazol-3-yl)-3-fluoropyridin-2-yl)-N,N,3-trimethylazetidin-3-amine], the Kd in assay [1], in assay [2], in [3], in [4] and in [5] was 1 to 50 nM each time. Besides, the IC50 was 50 to 200 nM in assay [6]; 50 to 200 nM in [7]; 0.1 to 50 nM in assay [8]; 0.1 to 50 nM in assay [9]; 0.1 to 50 nM in assay [10].

Consider `C[C@@H](Oc1ccc2[nH]nc(-c3cnc(N4CC(C)(CP(C)(C)=O)C4)c(C#N)c3)c2c1)c1c(Cl)cncc1Cl` [Example 6, (R)-5-(5-(1-(3,5-dichloropyridin-4-yl)ethoxy)-1H-indazol-3-yl)-2-(3-((dimethylphosphoryl)methyl)-3-methylazetidin-1-yl)nicotinonitrile], for which the Kd in [1] is 50 to 300 nM; in assay [2], 1 to 50 nM; in [3], 1 to 50 nM; in assay [4] it was 1 to 50 nM; in assay [5], 1 to 50 nM. The IC50 in [6] was 50 to 200 nM; in assay [7], above 1000 nM; in assay [8] it was 50 to 200 nM; in [9], 0.1 to 50 nM; in assay [10] it was 0.1 to 50 nM.

Turning to `CC(C)NC1(CC#N)CN(c2ncc(-c3n[nH]c4ccc(O[C@H](C)c5c(Cl)cncc5Cl)cc34)cc2F)C1` [Example 150, (R)-2-(1-(5-(5-(1-(3,5-dichloropyridin-4-yl)ethoxy)-1H-indazol-3-yl)-3-fluoropyridin-2-yl)-3-(isopropylamino)azetidin-3-yl)acetonitrile], the Kd in assay [1] and in assay [3] was 1 to 50 nM throughout. Also, the IC50 in [6] was in the range of 0.1 to 50 nM; in [7] it was 50 to 200 nM; in assay [8], 0.1 to 50 nM; in [9], 0.1 to 50 nM; in assay [10], 50 to 200 nM.

For the molecule `COc1cc2[nH]nc(-c3cnc(N4CC[C@](C)(N)C4)c(C#N)c3)c2cc1O[C@H](C)c1c(Cl)cncc1Cl` [Example 367, 2-((S)-3-amino-3-methylpyrrolidin-1-yl)-5-(5-((R)-1-(3,5-dichloropyridin-4-yl)ethoxy)-6-methoxy-1H-indazol-3-yl)nicotinonitrile], the Kd in [1], in assay [2], in assay [3] and in assay [5] was 1 to 50 nM each time. Besides, the IC50 in [6] is 0.1 to 50 nM; in assay [7], 50 to 200 nM; in assay [8], 0.1 to 50 nM; in assay [9], 0.1 to 50 nM; in [10] it was 0.1 to 50 nM.

Take `C[C@@H](Oc1ccc2[nH]nc(-c3cnc(N4CC(CC#N)(NCC5CC5)C4)c(F)c3)c2c1)c1c(Cl)cncc1Cl` [Example 151, 2-[3-(Cyclopropylmethyl-amino)-1-[5-[5-[(1R)-1-(3,5-dichloro-4-pyridyl)ethoxy]-1H-indazol-3-yl]-3-fluoro-2-pyridyl]azetidin-3-yl]acetonitrile]: the Kd in assay [1] and in assay [3] was 1 to 50 nM throughout. Besides, the IC50 in assay [6] lay in the range of 50 to 200 nM; in [7] it was 50 to 200 nM; in assay [8], 0.1 to 50 nM; in assay [9], 0.1 to 50 nM; in [10], 50 to 200 nM.

On to `CC[C@@H](C)NC1(C)CN(c2ccc(-c3n[nH]c4ccc(O[C@H](C)c5c(Cl)cncc5Cl)cc34)cn2)C1` [Example 225, 1-[5-[5-[(1R)-1-(3,5-dichloro-4-pyridyl)ethoxy]-1H-indazol-3-yl]-2-pyridyl]-3-methyl-N-[(1R)-1-meth-ylpropyl]azetidin-3-amine], for which the Kd in assay [1], in assay [2], in assay [3], in [4] and in assay [5] was 1 to 50 nM in each case. Further, the IC50 in [6] fell in the range of 0.1 to 50 nM; in assay [7] it was 50 to 200 nM; in [8], 0.1 to 50 nM; in [10] it was 50 to 200 nM.

With `C[C@@H](Oc1ccc2[nH]nc(-c3ccc(N4CC(C)(NCC5CC5)C4)nc3F)c2c1)c1c(Cl)cncc1Cl` [Example 237, (R)—N-(cyclopropylmethyl)-1-(5-(5-(1-(3,5-dichloropyridin-4-yl)ethoxy)-1H-indazol-3-yl)-6-fluoropyridin-2-yl)-3-methylazetidin-3-amine], the Kd in assay [1], in assay [2], in assay [3], in assay [4] and in [5] was 1 to 50 nM in each case. Also, the IC50 in assay [6] was 0.1 to 50 nM; in assay [7] it was 0.1 to 50 nM; in assay [8], 0.1 to 50 nM; in assay [10], 50 to 200 nM.

`C[C@@H](Oc1ccc2[nH]nc(-c3ccc(N4CC(C)(NCC5CC5)C4)nc3)c2c1)c1c(Cl)cncc1Cl` [Example 219, (R)-N-(cyclo-propylmethyl)-1-(5-(5-(1-(3,5-dichloropyridin-4-yl)ethoxy)-1H-indazol-3-yl)pyridin-2-yl)-3-methylazetidin-3-amine]: the Kd in assay [1], in assay [2], in [3], in assay [4] and in assay [5] was 1 to 50 nM throughout. The IC50 lay within 0.1 to 50 nM in assay [6], 0.1 to 50 nM in assay [7], 0.1 to 50 nM in assay [8] and 50 to 200 nM in [10].

For the molecule `Cc1ncc(Cl)c([C@@H](C)Oc2ccc3[nH]nc(-c4ccc(N5CC(C)(N(C)C)C5)nc4)c3c2)c1Cl` [Example 78, 1-[5-[5-[(1R)-1-(3,5-dichloro-2-methyl-4-pyridyl)ethoxy]-1H-indazol-3-yl]-2-pyridyl]-N,N,3-trimethyl-azetidin-3-amine], the Kd in assay [1], in assay [2], in [3], in assay [4] and in [5] was 1 to 50 nM in each case. For the same molecule, the IC50 in [6] was in the range of 50 to 200 nM; in assay [7], 200 to 1000 nM; in assay [8], 0.1 to 50 nM; in [10], 200 to 1000 nM.

In the case of `C[C@@H](Oc1ccc2[nH]nc(-c3ccc(N4CC(C)(CS(C)(=O)=O)C4)nc3)c2c1)c1c(Cl)cncc1Cl` [Example 181, (R)-5-(1-(3,5-dichloropyridin-4-yl)ethoxy)-3-(6-(3-methyl-3-((methylsulfonyl)-methyl)azetidin-1-yl)pyridin-3-yl)-1H-indazole], the Kd in [1], in assay [2], in assay [3], in assay [4] and in [5] was 1 to 50 nM throughout. The IC50 in assay [6] lay within 0.1 to 50 nM; in assay [7], 50 to 200 nM; in [8], 0.1 to 50 nM; in assay [10], 50 to 200 nM.

As to `COc1cc2[nH]nc(-c3cnc(N4CC[C@@](C)(N)C4)c(C#N)c3)c2cc1O[C@H](C)c1c(Cl)cncc1Cl` [Example 369, 2-((R)-3-amino-3-methylpyrrolidin-1-yl)-5-(5-((R)-1-(3,5-dichloropyridin-4-yl)ethoxy)-6-methoxy-1H-indazol-3-yl)nicotinonitrile], the Kd in assay [1], in assay [2], in assay [3] and in assay [5] was 1 to 50 nM throughout. Besides, the IC50 in assay [6] fell in the range of 0.1 to 50 nM; in assay [7], 50 to 200 nM; in assay [8], 0.1 to 50 nM; in assay [9] it was 0.1 to 50 nM; in assay [10] it was 0.1 to 50 nM.
